The record followed here is patent US20230250096A1, “SUBSTITUTED PHENYL-1H-PYRROLO[2,3-c] PYRIDINE DERIVATIVES” (Janssen Pharmaceutica NV, priority 2021, published 2023).

Series [1] is described as follows: Dynamic vapor sorption (DVS) moisture sorption analysis. In kind it is physicochemical. How it is done:
Dynamic Vapor Sorption (DVS)
The moisture sorption analysis (DVS) was performed using a ProUmid GmbH & Co. KG Vsorp Enhanced dynamic vapor sorption apparatus. The moisture profile was evaluated by monitoring vapor adsorption/desorption over the range of 0 to 90% relative humidity at 25° C. The sample weight equilibrium criteria were set at <0.01% change in 45 min with minimum and maximum time of acclimation at 50 min and 120 min, respectively. The moisture profile consisted of 2 cycles of vapor adsorption/desorption.
In the humidity range of 20-90% RH, the crystalline form adsorbs and desorbs moisture slowly and reversibly up to 2.5% by mass on average. Based on DVS, the crystalline HCl salt Form, at equilibrium, can contain around 3 equivalents of water (8.5-9.5% total moisture mass) at common ambient RH of 40% to 75%.

Series [2] addresses T1, menin/MLL (terbium chelate-labeled menin, FITC-MBM1 peptide) (Homo sapiens, UniProt O00255, T541A).
T1 construct: Menin (a.a 1-610-6xhis tag, 2.3 mg/mL in 20 mM Hepes)
T1 sequence (O00255 with tags, fused parts or gaps T541A): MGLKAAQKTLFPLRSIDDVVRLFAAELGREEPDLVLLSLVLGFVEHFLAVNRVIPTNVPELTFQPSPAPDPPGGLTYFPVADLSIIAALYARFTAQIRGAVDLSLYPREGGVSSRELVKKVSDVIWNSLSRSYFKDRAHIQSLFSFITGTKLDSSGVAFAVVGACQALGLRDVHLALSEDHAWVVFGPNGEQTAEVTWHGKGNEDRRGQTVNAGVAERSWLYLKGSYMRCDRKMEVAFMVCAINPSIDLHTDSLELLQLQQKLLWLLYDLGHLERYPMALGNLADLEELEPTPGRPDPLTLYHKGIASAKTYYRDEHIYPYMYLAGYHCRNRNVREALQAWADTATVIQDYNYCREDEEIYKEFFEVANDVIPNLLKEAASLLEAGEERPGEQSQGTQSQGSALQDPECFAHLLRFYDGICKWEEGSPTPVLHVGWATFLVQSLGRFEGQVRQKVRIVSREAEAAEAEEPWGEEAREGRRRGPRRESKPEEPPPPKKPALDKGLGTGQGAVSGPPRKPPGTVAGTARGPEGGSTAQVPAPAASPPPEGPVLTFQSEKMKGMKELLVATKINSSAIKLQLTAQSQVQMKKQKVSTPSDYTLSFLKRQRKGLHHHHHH
Description: Menin/MLL homogenous time-resolved fluorescence (HTRF) assay. The series is classed as binding. The following applies: 30 min incubation. In short, it runs like this:
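Terbium-labeled menin (a.a. 1-610, His-tagged; […]) pre-incubated 30 min with compound, then 75 nM FITC-MBM1 peptide added for 15 min at ambient temperature in Tris pH 7.5 buffer, 0.5% DMSO. HTRF 520/490 nm ratio read; IC50 from 11-point four-fold titrations, typically from 10 μM.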

Where [3] appears, read: common ambient RH of 40% to 75%.

Molecules are shown by their SMILES.

On to `CC(=O)N1CCC(CN2CC[C@@H](Cc3cn(-c4ccc(F)cc4C(=O)N(C)C(C)C)c4cncc(C)c34)C2)CC1.Cl` [Compound 51a], for which the “hygroscopicity of the crystalline form (DVS change in mass plot)” value in series [1] (0 to 90% relative humidity, 25° C., 2 cycles of adsorption/desorption) is on record as “hygroscopic”. In addition, the “solid-state form change after the DVS test (XRPD compared with the starting material)” value in series [1] (XRPD of the fraction obtained after DVS) is “No indication of a solid-state form change was observed”. Also, the “dehydration behaviour at low relative humidity” value in series [1] (below 10% RH, to complete dehydrated state at 0% RH) was “dehydrates rapidly”. Moreover, in series [1] (setting [3]), the “total moisture mass at equilibrium” value was 8.5-9.5% and the “water content at equilibrium” value is “around 3 equivalents of water”. For the same compound, in series [1] (humidity range of 20-90% RH, 25° C.), the “moisture adsorbed and desorbed (slowly and reversibly), on average” value was “up to 2.5 % by mass”. Besides, the IC50 – broadly, the midpoint of a concentration-inhibition curve – in series [2] came out at 0.024 nM.
